In US20190091174A1, “METHOD OF REDUCING SEIZURE TYPE E[…] A DRAVET PATIENT” (ZOGENIX INTERNATIONAL LIMITED, priority 2017, published 2019):

Legend:
[1] = test system: patients with Dravet syndrome; experiment: Study 1 (ZX008-1501/1502): Phase 3, double-blind, placebo-controlled, liquid fenfluramine formulation added to current antiepileptic drugs; type: in vivo, human; settings: end of the T+M Period
Description: The first 119 subjects to be randomized in both identical studies combined were analyzed and reported as Study 1 (FIG. 1), covered by a Statistical Analysis Plan (SAP).
Primary and key secondary endpoints in the Study 1 SAP were pre-determined. All patients were treated twice per day over a period of 14 weeks using an oral syringe to administer the formulation. The treatment period included a two-week titration period and a 12-week maintenance period.
The initial results of Study 1 are outlined below. The randomized, double blind, placebo controlled, Phase 3 study enrolled 119 patients across sites in the United States, Canada, Europe and Australia. The median age of patients was 8 years, the mean age of patients was 9 years (range, 2-18 years) (FIG. 2).
Patients were titrated to their target dose over two weeks, and then remained at that fixed dose for 12 weeks. The mean baseline convulsive seizure frequency across the study groups was approximately 40 seizures per month. 110 (92%) patients completed the study (85% 0.8 mg/kg/day; 100% 0.2 mg/kg/day; 93% placebo). […]
The mean number of convulsive seizure free days, defined as a day for which diary data are available and no convulsive seizures have been reported, was determined for each treatment group during the Baseline and T+M Periods. […]

[2] = test system: patients with Dravet syndrome; settings: long-term fenfluramine treatment; cited from earlier work

## CCNC(C)Cc1cccc(C(F)(F)F)c1 (racemic) [Fenfluramine, 3-trifluoromethyl-N-ethylamphetamine]
[1]; 0.2 mg/kg/day
  reduction from Baseline in non-convulsive seizures (all types), % [SD]: 9.7% (140.46)
[1]; 0.8 mg/kg/day
  reduction from Baseline in non-convulsive seizures (all types), % [SD]: 59.1% (40.14)
[2]
  heart valve defects monitored by echocardiography: No clinically relevant defects
  incidence of all types of seizures: effectively reduced the incidence of all types of seizures
  seizure-free condition, share of test subjects: 66.6%
